{"source": "the NIST ThermoML archive (doi:10.1021/acs.jced.6b00516)", "key": {"[1]": {"settings": "for viscosity / speed of sound / mass density: 102 kPa, Liquid; for viscosity: Concentric cylinders viscometry; for speed of sound: Frequency=3 MHz, Sing-around technique in a fixed-path interferometer; for mass density: Vibrating tube method; for surface tension liquid-gas: Sessile Drop"}, "[2]": {"assay": "xn = mol fraction of the nth substance listed", "settings": "102 kPa, Liquid, Concentric cylinders viscometry, x2 = 0"}}, "note": "Numbers after ± are expanded uncertainties.", "data": [{"smiles": "CCCCC1CCCCC1", "note": "[butylcyclohexane]", "values": [{"measurement": "viscosity", "setting": "[1]; 293.15 K", "value": "1.31 ± 0.01", "unit": "mPa·s"}, {"measurement": "speed of sound", "setting": "[1]; 293.15 K", "value": "1328.4 ± 0.8", "unit": "m/s"}, {"measurement": "mass density", "setting": "[1]; 293.15 K", "value": "799.33 ± 0.14", "unit": "kg/m3"}, {"measurement": "surface tension liquid-gas", "setting": "[1]; 294 K", "value": "26.7 ± 0.2", "unit": "mN/m"}, {"measurement": "viscosity", "setting": "[1]; 303.15 K", "value": "1.12 ± 0.01", "unit": "mPa·s"}, {"measurement": "speed of sound", "setting": "[1]; 303.15 K", "value": "1288.7 ± 0.8", "unit": "m/s"}, {"measurement": "mass density", "setting": "[1]; 303.15 K", "value": "791.82 ± 0.14", "unit": "kg/m3"}, {"measurement": "viscosity", "setting": "[1]; 313.15 K", "value": "0.961 ± 0.012", "unit": "mPa·s"}, {"measurement": "speed of sound", "setting": "[1]; 313.15 K", "value": "1249.5 ± 0.8", "unit": "m/s"}, {"measurement": "mass density", "setting": "[1]; 313.15 K", "value": "784.28 ± 0.14", "unit": "kg/m3"}, {"measurement": "viscosity", "setting": "[1]; 323.15 K", "value": "0.837 ± 0.012", "unit": "mPa·s"}, {"measurement": "speed of sound", "setting": "[1]; 323.15 K", "value": "1210.8 ± 0.8", "unit": "m/s"}, {"measurement": "mass density", "setting": "[1]; 323.15 K", "value": "776.7 ± 0.14", "unit": "kg/m3"}, {"measurement": "viscosity", "setting": "[1]; 333.15 K", "value": "0.735 ± 0.011", "unit": "mPa·s"}, {"measurement": "speed of sound", "setting": "[1]; 333.15 K", "value": "1172.8 ± 0.8", "unit": "m/s"}, {"measurement": "mass density", "setting": "[1]; 333.15 K", "value": "769.09 ± 0.14", "unit": "kg/m3"}, {"measurement": "viscosity", "setting": "[1]; 343.15 K", "value": "0.648 ± 0.011", "unit": "mPa·s"}, {"measurement": "mass density", "setting": "[1]; 343.15 K", "value": "761.4 ± 0.2", "unit": "kg/m3"}, {"measurement": "viscosity", "setting": "[1]; 353.15 K", "value": "0.576 ± 0.021", "unit": "mPa·s"}, {"measurement": "mass density", "setting": "[1]; 353.15 K", "value": "753.7 ± 0.3", "unit": "kg/m3"}]}, {"smiles": "CCCCCCCCCCCCCCCC", "note": "[hexadecane] + CCCCC1CCCCC1", "values": [{"measurement": "viscosity", "setting": "[2]; 293.15 K", "value": "3.44 ± 0.02", "unit": "mPa·s"}, {"measurement": "viscosity", "setting": "[2]; 303.15 K", "value": "2.72 ± 0.02", "unit": "mPa·s"}, {"measurement": "viscosity", "setting": "[2]; 313.15 K", "value": "2.21 ± 0.02", "unit": "mPa·s"}, {"measurement": "viscosity", "setting": "[2]; 323.15 K", "value": "1.83 ± 0.01", "unit": "mPa·s"}, {"measurement": "viscosity", "setting": "[2]; 333.15 K", "value": "1.54 ± 0.01", "unit": "mPa·s"}, {"measurement": "viscosity", "setting": "[2]; 343.15 K", "value": "1.31 ± 0.01", "unit": "mPa·s"}, {"measurement": "viscosity", "setting": "[2]; 353.15 K", "value": "1.14 ± 0.01", "unit": "mPa·s"}]}, {"smiles": "Cc1ccccc1", "note": "[toluene] + CCCCC1CCCCC1", "values": [{"measurement": "viscosity", "setting": "[2]; 293.15 K", "value": "0.607 ± 0.011", "unit": "mPa·s"}, {"measurement": "viscosity", "setting": "[2]; 303.15 K", "value": "0.54 ± 0.011", "unit": "mPa·s"}, {"measurement": "viscosity", "setting": "[2]; 313.15 K", "value": "0.483 ± 0.011", "unit": "mPa·s"}, {"measurement": "viscosity", "setting": "[2]; 323.15 K", "value": "0.434 ± 0.011", "unit": "mPa·s"}, {"measurement": "viscosity", "setting": "[2]; 333.15 K", "value": "0.391 ± 0.011", "unit": "mPa·s"}, {"measurement": "viscosity", "setting": "[2]; 343.15 K", "value": "0.349 ± 0.011", "unit": "mPa·s"}, {"measurement": "viscosity", "setting": "[2]; 353.15 K", "value": "0.307 ± 0.011", "unit": "mPa·s"}]}, {"smiles": "CCCCCCCCCCCCCCCC", "note": "[hexadecane]", "values": [{"measurement": "viscosity", "setting": "[1]; 293.15 K", "value": "3.44 ± 0.02", "unit": "mPa·s"}, {"measurement": "speed of sound", "setting": "[1]; 293.15 K", "value": "1357.2 ± 0.8", "unit": "m/s"}, {"measurement": "mass density", "setting": "[1]; 293.15 K", "value": "773.41 ± 0.14", "unit": "kg/m3"}, {"measurement": "surface tension liquid-gas", "setting": "[1]; 294 K", "value": "27.1 ± 0.3", "unit": "mN/m"}, {"measurement": "viscosity", "setting": "[1]; 303.15 K", "value": "2.72 ± 0.02", "unit": "mPa·s"}, {"measurement": "speed of sound", "setting": "[1]; 303.15 K", "value": "1319.5 ± 0.8", "unit": "m/s"}, {"measurement": "mass density", "setting": "[1]; 303.15 K", "value": "766.47 ± 0.14", "unit": "kg/m3"}, {"measurement": "viscosity", "setting": "[1]; 313.15 K", "value": "2.21 ± 0.02", "unit": "mPa·s"}, {"measurement": "speed of sound", "setting": "[1]; 313.15 K", "value": "1283.3 ± 0.8", "unit": "m/s"}, {"measurement": "mass density", "setting": "[1]; 313.15 K", "value": "759.55 ± 0.15", "unit": "kg/m3"}, {"measurement": "viscosity", "setting": "[1]; 323.15 K", "value": "1.83 ± 0.01", "unit": "mPa·s"}, {"measurement": "speed of sound", "setting": "[1]; 323.15 K", "value": "1247.3 ± 0.8", "unit": "m/s"}, {"measurement": "mass density", "setting": "[1]; 323.15 K", "value": "752.63 ± 0.15", "unit": "kg/m3"}, {"measurement": "viscosity", "setting": "[1]; 333.15 K", "value": "1.54 ± 0.01", "unit": "mPa·s"}, {"measurement": "speed of sound", "setting": "[1]; 333.15 K", "value": "1212 ± 0.8", "unit": "m/s"}, {"measurement": "mass density", "setting": "[1]; 333.15 K", "value": "745.71 ± 0.15", "unit": "kg/m3"}, {"measurement": "viscosity", "setting": "[1]; 343.15 K", "value": "1.31 ± 0.01", "unit": "mPa·s"}, {"measurement": "mass density", "setting": "[1]; 343.15 K", "value": "738.8 ± 0.2", "unit": "kg/m3"}, {"measurement": "viscosity", "setting": "[1]; 353.15 K", "value": "1.14 ± 0.01", "unit": "mPa·s"}, {"measurement": "mass density", "setting": "[1]; 353.15 K", "value": "731.9 ± 0.3", "unit": "kg/m3"}, {"measurement": "viscosity", "setting": "[1]; 363.15 K", "value": "0.994 ± 0.012", "unit": "mPa·s"}, {"measurement": "viscosity", "setting": "[1]; 373.15 K", "value": "0.878 ± 0.012", "unit": "mPa·s"}]}, {"smiles": "Cc1ccccc1", "note": "[toluene]", "values": [{"measurement": "viscosity", "setting": "[1]; 293.15 K", "value": "0.607 ± 0.011", "unit": "mPa·s"}, {"measurement": "speed of sound", "setting": "[1]; 293.15 K", "value": "1326.6 ± 0.8", "unit": "m/s"}, {"measurement": "mass density", "setting": "[1]; 293.15 K", "value": "866.84 ± 0.13", "unit": "kg/m3"}, {"measurement": "surface tension liquid-gas", "setting": "[1]; 294.2 K", "value": "28.6 ± 0.2", "unit": "mN/m"}, {"measurement": "viscosity", "setting": "[1]; 303.15 K", "value": "0.54 ± 0.011", "unit": "mPa·s"}, {"measurement": "speed of sound", "setting": "[1]; 303.15 K", "value": "1283.6 ± 0.8", "unit": "m/s"}, {"measurement": "mass density", "setting": "[1]; 303.15 K", "value": "857.52 ± 0.13", "unit": "kg/m3"}, {"measurement": "viscosity", "setting": "[1]; 313.15 K", "value": "0.483 ± 0.011", "unit": "mPa·s"}, {"measurement": "speed of sound", "setting": "[1]; 313.15 K", "value": "1241.1 ± 0.8", "unit": "m/s"}, {"measurement": "mass density", "setting": "[1]; 313.15 K", "value": "848.14 ± 0.14", "unit": "kg/m3"}, {"measurement": "viscosity", "setting": "[1]; 323.15 K", "value": "0.434 ± 0.011", "unit": "mPa·s"}, {"measurement": "speed of sound", "setting": "[1]; 323.15 K", "value": "1199.2 ± 0.8", "unit": "m/s"}, {"measurement": "mass density", "setting": "[1]; 323.15 K", "value": "838.68 ± 0.14", "unit": "kg/m3"}, {"measurement": "viscosity", "setting": "[1]; 333.15 K", "value": "0.391 ± 0.011", "unit": "mPa·s"}, {"measurement": "speed of sound", "setting": "[1]; 333.15 K", "value": "1157.7 ± 0.8", "unit": "m/s"}, {"measurement": "mass density", "setting": "[1]; 333.15 K", "value": "829.15 ± 0.14", "unit": "kg/m3"}, {"measurement": "viscosity", "setting": "[1]; 343.15 K", "value": "0.349 ± 0.027", "unit": "mPa·s"}, {"measurement": "mass density", "setting": "[1]; 343.15 K", "value": "819.6 ± 0.2", "unit": "kg/m3"}, {"measurement": "viscosity", "setting": "[1]; 353.15 K", "value": "0.307 ± 0.011", "unit": "mPa·s"}, {"measurement": "mass density", "setting": "[1]; 353.15 K", "value": "809.8 ± 0.5", "unit": "kg/m3"}]}]}
